# Measurements from publication PMC3711671 (Nature chemical biology, 2012).
# What was measured:
# [1] = target: PKM2 in A549 cells (Homo sapiens, UniProt P14618); experiment: Size exclusion chromatography of cell lysates; type: cell-based; conditions: 100 μM pervanadate for 10 min
# [2] = target: recombinant PKM2 monomers and tetramers (Homo sapiens, UniProt P14618); type: biochemical; conditions: 100 µM FBP
# Sequence of recombinant PKM2 monomers and tetramers (P14618 whole entry): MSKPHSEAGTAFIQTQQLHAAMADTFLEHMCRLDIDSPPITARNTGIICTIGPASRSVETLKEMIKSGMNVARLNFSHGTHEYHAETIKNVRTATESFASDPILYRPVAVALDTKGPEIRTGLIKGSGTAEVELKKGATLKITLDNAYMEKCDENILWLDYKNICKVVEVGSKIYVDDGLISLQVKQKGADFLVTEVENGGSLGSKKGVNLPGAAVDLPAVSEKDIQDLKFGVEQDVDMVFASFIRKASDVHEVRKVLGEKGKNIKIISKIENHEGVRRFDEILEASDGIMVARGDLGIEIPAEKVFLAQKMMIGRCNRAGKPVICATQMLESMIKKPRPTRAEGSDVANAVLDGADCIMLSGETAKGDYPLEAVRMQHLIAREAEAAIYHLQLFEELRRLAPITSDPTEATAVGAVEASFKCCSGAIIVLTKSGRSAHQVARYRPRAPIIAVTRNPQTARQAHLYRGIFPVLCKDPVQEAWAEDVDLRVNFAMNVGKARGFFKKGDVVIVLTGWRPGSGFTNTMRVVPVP
# Sequence of PKM2 in A549 cells (P14618 2-531 limits assumed): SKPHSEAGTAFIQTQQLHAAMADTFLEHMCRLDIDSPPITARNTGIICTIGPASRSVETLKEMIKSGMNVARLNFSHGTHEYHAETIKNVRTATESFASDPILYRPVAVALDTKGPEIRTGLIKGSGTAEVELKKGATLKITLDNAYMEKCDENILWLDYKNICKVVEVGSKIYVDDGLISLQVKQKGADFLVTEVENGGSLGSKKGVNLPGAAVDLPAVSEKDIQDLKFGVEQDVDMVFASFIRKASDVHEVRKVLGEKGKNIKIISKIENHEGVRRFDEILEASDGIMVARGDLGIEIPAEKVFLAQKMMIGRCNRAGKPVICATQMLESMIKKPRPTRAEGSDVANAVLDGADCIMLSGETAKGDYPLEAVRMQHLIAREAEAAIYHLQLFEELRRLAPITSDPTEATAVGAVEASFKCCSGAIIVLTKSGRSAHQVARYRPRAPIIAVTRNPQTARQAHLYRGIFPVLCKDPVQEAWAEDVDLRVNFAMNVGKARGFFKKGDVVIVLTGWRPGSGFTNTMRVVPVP
effect on PKM2 tetramer activity [2],increase of activity of PKM2 monomers [2],Compound,PKM2 subunit stoichiometry in cells after pervanadate [1]
–,–,Pervanadate,disappearance of PKM2 tetramers
minimal effects,approximately 70%,"O=C(COP(=O)(O)O)[C@@H](O)[C@H](O)[C@H](O)COP(=O)(O)O [FBP, fructose-1,6-bisphosphate]",–
